Measured values published in ChEMBL document CHEMBL3826962, “Synthesis, biological evaluation and molecular docking of 2-phenyl-benzo[d]oxazole-7-carboxamide derivatives as potential Staphylococcus aureus Sortase A inhibitors” (Bioorg Med Chem Lett, 2016).

assay: Inhibition of Staphylococcus aureus sortase A using Abz-LPETG-Dap(DNP)-NH2 as substrate preincubated for 1 hr followed by substrate addition by FRET assay

IC50 | Structure (SMILES)
87.4 µM | CC(C)CNC(=O)c1cccc2nc(-c3ccc(COC(=O)/C=C/c4ccc(O)cc4)cc3)oc12
159 µM | CC(C)CNC(=O)c1cccc2nc(-c3ccc(COC(=O)c4ccc([N+](=O)[O-])cc4)cc3)oc12
144 µM | CC(C)NC(=O)c1cccc2nc(-c3ccc(COC(=O)c4cccc(O)c4)cc3)oc12
19.8 µM | CC(C)CNC(=O)c1cccc2nc(-c3ccc(COC(=O)c4ccc(O)c(O)c4O)cc3)oc12
46.3 µM | CC(C)NC(=O)c1cccc2nc(-c3ccc(COC(=O)c4ccc(O)cc4)cc3)oc12
161 µM | CCCCNC(=O)c1cccc2nc(-c3ccc(COC(=O)c4cccc(O)c4)cc3)oc12
22.4 µM | CC(C)CNC(=O)c1cccc2nc(-c3ccc(COC(=O)c4ccc(O)cc4O)cc3)oc12
> 200 µM | O=C(Cc1cccc(O)c1)OCc1ccc(-c2nc3ccccc3o2)cc1
116 µM | CC(C)NC(=O)c1cccc2nc(-c3ccc(COC(=O)Cc4ccc(O)cc4)cc3)oc12
136 µM | CCCCNCc1ccc(-c2nc3cccc(C(=O)NCC(C)C)c3o2)cc1
128 µM | CC(C)CNC(=O)c1cccc2nc(-c3ccc(CNCc4ccccc4)cc3)oc12
74.8 µM | CC(C)NC(=O)c1cccc2nc(-c3ccc(COC(=O)Cc4ccc(O)c(O)c4)cc3)oc12
177 µM | CCCCNC(=O)c1cccc2nc(-c3ccc(COC(=O)Cc4cccc(O)c4)cc3)oc12
64.4 µM | CC(C)CNC(=O)c1cccc2nc(-c3ccc(COC(=O)Cc4ccc(O)c(O)c4)cc3)oc12
> 200 µM | O=C(OCc1ccc(-c2nc3ccccc3o2)cc1)c1ccc(O)cc1
181 µM | CCCCNC(=O)c1cccc2nc(-c3ccc(COC(=O)Cc4ccc(O)cc4)cc3)oc12
26.1 µM | CC(C)CNC(=O)c1cccc2nc(-c3ccc(COC(=O)c4cccc(O)c4)cc3)oc12
155 µM | CCCCNC(=O)c1cccc2nc(-c3ccc(COC(=O)c4ccc(O)cc4)cc3)oc12
155 µM | CC(C)CNC(=O)c1cccc2nc(-c3ccc(COC(=O)c4ccccc4[N+](=O)[O-])cc3)oc12
24.8 µM | COc1cc(OC)cc(C(=O)OCc2ccc(-c3nc4cccc(C(=O)NCC(C)C)c4o3)cc2)c1
81.4 µM | CC(C)CNC(=O)c1cccc2nc(-c3ccc(COC(=O)Cc4cccc(O)c4)cc3)oc12
161 µM | CC(C)CNC(=O)c1cccc2nc(-c3ccc(COC(=O)c4ccccc4)cc3)oc12
73.2 µM | CC(C)CNC(=O)c1cccc2nc(-c3ccc(COC(=O)Cc4ccc(O)cc4)cc3)oc12
87.4 µM | CC(C)CNC(=O)c1cccc2nc(-c3ccc(COC(=O)Cc4ccc([N+](=O)[O-])c(O)c4)cc3)oc12
20.6 µM | CC(C)CNC(=O)c1cccc2nc(-c3ccc(COC(=O)c4ccc(O)c(O)c4)cc3)oc12
65.5 µM | COc1ccc(NCc2ccc(-c3nc4cccc(C(=O)NCC(C)C)c4o3)cc2)cc1
> 200 µM | O=C(Cc1ccc(O)c(O)c1)OCc1ccc(-c2nc3ccccc3o2)cc1
184 µM | CCCCNC(=O)c1cccc2nc(-c3ccc(COC(=O)/C=C/c4ccc(O)cc4)cc3)oc12
> 200 µM | O=C(OCc1ccc(-c2nc3ccccc3o2)cc1)c1cccc(O)c1
